Data as given in patent US6495603B1, “Anti-inflammatory eye drop” (Wakamoto Pharmaceutical Co., Ltd., priority 1998, dated 2002).

How the values were obtained:
[1] = tested on: SV40 immortalized human corneal epithelial cell strains; experiment: Cell toxicity, viable cell number by β-hexosaminidase activity, corneal epithelial cells; type: cell-based; details: concentration for survival rate of 50%
Experimental: (§1) There were used SV40 immortalized human corneal epithelial cell strains (Araki-Sasaki et al., IOVS, 1995, 36:614-621) as the corneal cells and Chang human conjunctival cell strains (ATCC CCL-20.2) as the conjunctival cells.
(§2) These cells were cultured in 96-well plate to a confluent of 30 to 50% and then each test substance stepwise diluted with the culture medium was added to the foregoing culture medium to thus carry out cultivation at 37° C. After completion of the cultivation, the plate was washed with PBS(−) and the number of residual cells was determined in terms of the β-hexosaminidase activity.
(§3) A group treated with only the solvent, which was used for dissolving the test substance was defined to be a negative control, the viable cell number observed for the control was assumed to be 100%, a dose-correlation curve was prepared on the basis of the viable cell number observed at each concentration of test substance and the concentration of each test substance required for achieving the survival rate of 50% (EC50) was determined from the curve and it was defined to be the toxicity value thereof.

[2] = tested on: Chang human conjunctival cell strains (ATCC CCL-20.2); experiment: Cell toxicity, viable cell number by β-hexosaminidase activity, conjunctival cells; type: cell-based; details: concentration for survival rate of 50%
Experimental: as §1, §2, §3

Japanese white rabbits = experiment: Inflammation in anterior of white rabbit after anterior chamber puncture (secondary aqueous humor PGE2 and protein); type: in vivo; details: for Inhibition Rate (PGE2 Content) / Inhibition Rate (Protein Content): anterior chamber puncture, vs control; for PGE2 Content / Protein Content: secondary aqueous humor after anterior chamber puncture
Experimental: In this Test Example, there were used Japanese white rabbits (available from Japan Medical Animal Source Laboratory) each having a body weight ranging from 1.8 to 2.4 kg and they were divided into groups each consisting of 6 to 7 animals.
After administration of 250 U/kg of heparin (available from Takeda Chemical Industries, Ltd.) to these rabbits through the ear veins thereof, a test substance was dropped in the both eyes in an amount of about 60 μl. After 45 minutes from the dropping of the substance in the eyes, these animals were locally anesthetized with benoxil eye drop (available from Santen Pharmaceutical Co., Ltd.) and then whole of the anterior chamber fluid was collected using a 27G injection needle. This anterior chamber fluid was defined to be a primary aqueous humor. After 90 minutes from the collection of the aqueous humor, the rabbits were killed by anesthetization with an excess of pentobarbital sodium and the aqueous humor was again collected. This anterior chamber fluid was defined to be a secondary aqueous humor.
The concentration of prostaglandin E2 (hereunder referred to as “PGE2”) and the amount of proteins present in the collected secondary aqueous humor were determined and they were used as indications of inflammation. After pre-treatment of 100 μl of the aqueous humor using a Bond Elute C18 column, the concentration of PGE2 was determined using Biotrack PGE2 EIA system (available from Amersham Company). On the other hand, the amount of proteins was determined according to the Lowry method using bovine serum albumin (available from Nakarai Co., Ltd.) as a reference protein.
Etodolac as a test substance was dissolved in castor oil specified in the pharmacopoeia to concentrations of 0.5% and 5%. Meloxicam was diluted with physiological saline prior to use.

[3] = tested on: Japanese white male rabbits; experiment: Uveitis induced by LPS in rabbits (aqueous humor PGE2 and protein); type: in vivo, rabbit; details: for Inhibition Rate (PGE2 Content) / Inhibition Rate (Protein Content): LPS uveitis, vs control
Experimental: In this Test Example, groups of Japanese white male rabbits each having a body weight ranging from 1.7 to 2.4 kg were used, wherein each group consisted of 12 to 16 eyes.
The lipopolysaccharide (LPS) (055: B5 type, available from Sigma Company) derived from E. coli was administered to these rabbits through the auricular veins in a dose of 1.25 μg/kg to thus induce uveitis. After 4 hours from the administration of LPS, the rabbits were killed by anesthetization with an excess of pentobarbital sodium (available from Tokyo Chemical Industry Co., Ltd.) and the anterior chamber fluid was collected.
The PGE2 concentration and the amount of proteins present in the collected aqueous humor were determined according to the same methods used in Example 1.
In this respect, each test substance was dropped in the both eyes of these animals prior to one hour from the administration of LPS at a dose of about 60 μL/eye. […]

[4] = 24 h, exposure 24 hours, Table 4
[5] = 24 h, exposure time 24 hr, Table 5
[6] = 48 h, exposure time 48 hr, Table 5
[7] = aqueous humor 4 hours after LPS, 0.1% eye drop one hour before LPS
[8] = aqueous humor 4 hours after LPS, 0.5% eye drop one hour before LPS
[9] = aqueous humor 4 hours after LPS, 1.0% eye drop one hour before LPS

With `COc1ccc2c(c1)c(CC(=O)O)c(C)n2C(=O)c1ccc(Cl)cc1` [Indometacin] the EC50 [1, 4] was 570 µM and the EC50 [2, 4] was 370 µM.

For `Cc1cnc(NC(=O)C2=C(O)c3ccccc3S(=O)(=O)N2C)s1` [Meloxicam, 4-hydroxy-2-methyl-N-(5-methyl-2-thiazolyl)-2H-1,2-benzo-thiazine-3-carboxamide 1,1-dioxide], the EC50 [1, 5] was greater than 1000 µM, the EC50 [1, 6] was 840 µM and the “Inhibition Rate (PGE2 Content)” value (Japanese white rabbits; 0.1% eye drop) was 75.0%. For the same compound, the “Inhibition Rate (Protein Content)” value (Japanese white rabbits; 0.1% eye drop) was 29.3%, the “Inhibition Rate (PGE2 Content)” value (Japanese white rabbits; 0.5% eye drop) was 90.7% and the “Inhibition Rate (Protein Content)” value (Japanese white rabbits; 0.5% eye drop) was 52.2%. The “Inhibition Rate (PGE2 Content)” value (Japanese white rabbits; 1.0% eye drop) was 94.2%, the “Inhibition Rate (Protein Content)” value (Japanese white rabbits; 1.0% eye drop) was 47.6% and the “PGE2 Content” value (Japanese white rabbits; 0.1% eye drop) was 680.6 pg/mL. For the same compound, the “Protein Content” value (Japanese white rabbits; 0.1% eye drop, about 60 μl both eyes) was 16.2 ± 1.9 mg/mL, the “PGE2 Content” value (Japanese white rabbits; 0.5% eye drop) was 253.5 pg/mL and the “Protein Content” value (Japanese white rabbits; 0.5% eye drop) was 11.0 ± 1.5 mg/mL. For the same compound, the “PGE2 Content” value (Japanese white rabbits; 1.0% eye drop) was 158.3 pg/mL, the “Protein Content” value (Japanese white rabbits; 1.0% eye drop) was 12.0 ± 2.1 mg/mL and the “Inhibition Rate (PGE2 Content)” value ([3]; 0.1% eye drop) was 55.9%. The “Inhibition Rate (Protein Content)” value ([3]; 0.1% eye drop) was 33.8%, the “Inhibition Rate (PGE2 Content)” value ([3]; 0.5% eye drop) was 68.8% and the “Inhibition Rate (PGE2 Content)” value ([3]; 1.0% eye drop) was 63.1%. The “Inhibition Rate (Protein Content)” value ([3]; 1.0% eye drop) was 49.4%, the “PGE2 Content” value [3, 7] was 1102.8 pg/mL and the “Protein Content” value [3, 7] was 16.0 ± 1.9 mg/mL. For the same compound, the “PGE2 Content” value [3, 8] was 780.9 pg/mL, the “Protein Content” value [3, 8] was 14.3 ± 2.6 mg/mL and the “PGE2 Content” value [3, 9] was 922.8 pg/mL. The “Protein Content” value [3, 9] was 12.2 ± 1.8 mg/mL, the EC50 [2, 5] was 970 µM and the EC50 [2, 6] was 380 µM.

Compound `O=C(O)Cc1ccccc1Nc1c(Cl)cccc1Cl` [Diclofenac Sodium] has an EC50 [1, 4] of 300 µM, an EC50 [1, 5] of 630 µM and an EC50 [1, 6] of 230 µM. For the same compound, the EC50 [2, 4] was 130 µM, the EC50 [2, 5] was 230 µM and the EC50 [2, 6] was 220 µM.

For `CS(=O)(=O)Nc1ccc([N+](=O)[O-])cc1OC1CCCCC1` [NS-398, N-(2-(cyclohexyloxy)-4-nitrophenyl) methanesulfonamide], the “Inhibition Rate (PGE2 Content)” value ([3]; 0.5% in castor oil) was 65.9%, the “Inhibition Rate (PGE2 Content)” value ([3]; 5.0% in castor oil) was 59.4% and the “PGE2 Content” value ([3]; aqueous humor 4 hours after LPS 1.25 μg/kg, 0.5% in castor oil, dropped one hour before LPS) was 4553 ± 118.6 pg/mL. For the same compound, the “PGE2 Content” value ([3]; aqueous humor 4 hours after LPS 1.25 μg/kg, 5.0% in castor oil, dropped one hour before LPS) was 542.8 ± 79.8 pg/mL.

With `CCc1cccc2c3c([nH]c12)C(CC)(CC(=O)O)OCC3` (stereo not shown) [Etodolac, 1,8-diethyl-1,3,4,9-tetrahydropyrano [3,4-b] indole-1-acetic acid] the EC50 [1, 4] was 1000 µM, the “Effect on the PGE2 content increased by the anterior chamber puncture” value (Japanese white rabbits; aqueous humor, 0.5% and 5% in castor oil, FIG. 1) was “inhibited the increase” and the “Effect on the protein content increased by the anterior chamber puncture” value (Japanese white rabbits; aqueous humor, 0.5% and 5% in castor oil, FIG. 2) was “inhibited the increase”. For the same compound, the EC50 [2, 4] was 800 µM.
